ChEMBL document CHEMBL1201862, “PubChem BioAssay data set” (2004)
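Step 1: Grow cells in 96-well plates. Step 2: Expose to compound for 48 hours at 5 concentrations. Step 3: Interpolate endpoints linearly; if unreached, use highest concentration. GI50 is the concentration that inhibits growth by half.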 Calls of active or inactive are those of the source. Rule as the data show it: active = GI50 up to about 1.1 µM and inactive = higher.

Legend:
Assay in all cases: DTP human tumour cell line panel, 48 h
[1] = system: NCI-H23
[2] = system: CCRF-CEM
[3] = system: SK-MEL-5
[4] = system: PC-3
[5] = system: SF-539
[6] = system: HT-29
[7] = system: UACC-257
[8] = system: SN12C
[9] = system: OVCAR-4
[10] = system: BT-549
[11] = system: OVCAR-5
[12] = system: HOP-92
[13] = system: SNB-75
[14] = system: HCT-116
[15] = system: COLO 205
[16] = system: OVCAR-3
[17] = system: RPMI-8226
[18] = system: UACC-62
[19] = system: SR
[20] = system: Hs-578T
[21] = system: MDA-MB-231
[22] = system: M14
[23] = system: UO-31
[24] = system: TK-10
[25] = system: HCT-15
[26] = system: OVCAR-8
[27] = system: 786-0
[28] = system: A498
[29] = system: DU-145
[30] = system: SW-620
[31] = system: HCC 2998
[32] = system: ACHN
[33] = system: MDA-MB-435
[34] = system: SF-295
[35] = system: CAKI-1
[36] = system: SK-OV-3
[37] = system: U-251
[38] = system: SK-MEL-2
[39] = system: EKVX
[40] = system: MCF7
[41] = system: SNB-19
[42] = system: RXF 393
[43] = system: NCI-H460
[44] = system: IGROV-1
[45] = system: NCI/ADR-RES
[46] = system: SF-268
[47] = system: SK-MEL-28
[48] = system: A549
[49] = system: MOLT-4
[50] = system: K562
[51] = system: KM12
[52] = system: HL-60
[53] = system: NCI-H226
[54] = system: MDA-N
[55] = system: T47D
[56] = system: Malme-3M
[57] = system: NCI-H522
[58] = system: HOP-62
[59] = system: LOX IMVI

Cc1ccc2c(c1C)C(=O)C1(C2)Cc2ccc3c(c2C1=O)CCC3 (centres undefined)
GI50 [1]: > 100 µM (inactive)
GI50 [2]: > 100 µM (inactive)
GI50 [3]: > 100 µM (inactive)
GI50 [4]: > 100 µM (inactive)
GI50 [5]: 29.9 µM (inactive)
GI50 [6]: > 100 µM (inactive)
GI50 [7]: > 100 µM (inactive)
GI50 [8]: > 100 µM (inactive)
GI50 [9]: > 100 µM (inactive)
GI50 [10]: > 100 µM (inactive)
GI50 [11]: > 100 µM (inactive)
GI50 [12]: > 100 µM (inactive)
GI50 [13]: > 100 µM (inactive)
GI50 [14]: > 100 µM (inactive)
GI50 [15]: > 100 µM (inactive)
GI50 [16]: > 100 µM (inactive)
GI50 [17]: > 100 µM (inactive)
GI50 [18]: > 100 µM (inactive)
GI50 [19]: > 100 µM (inactive)
GI50 [20]: > 100 µM (inactive)
GI50 [21]: > 100 µM (inactive)
GI50 [22]: 2.03 µM (inactive)
GI50 [23]: > 100 µM (inactive)
GI50 [24]: > 100 µM (inactive)
GI50 [25]: > 100 µM
GI50 [26]: > 100 µM (inactive)
GI50 [27]: > 100 µM (inactive)
GI50 [28]: > 100 µM (inactive)
GI50 [29]: > 100 µM (inactive)
GI50 [30]: > 100 µM (inactive)
GI50 [31]: > 100 µM (inactive)
GI50 [32]: > 100 µM (inactive)
GI50 [33]: > 100 µM (inactive)
GI50 [34]: > 100 µM (inactive)
GI50 [35]: > 100 µM (inactive)
GI50 [36]: > 100 µM (inactive)
GI50 [37]: > 100 µM (inactive)
GI50 [38]: > 100 µM (inactive)
GI50 [39]: > 100 µM (inactive)
GI50 [40]: > 100 µM (inactive)
GI50 [41]: > 100 µM (inactive)
GI50 [42]: 41.8 µM (inactive)
GI50 [43]: > 100 µM (inactive)
GI50 [44]: > 100 µM (inactive)
GI50 [45]: > 100 µM (inactive)
GI50 [46]: > 100 µM (inactive)
GI50 [47]: > 100 µM (inactive)
GI50 [48]: > 100 µM (inactive)
GI50 [49]: > 100 µM (inactive)
GI50 [50]: > 100 µM (inactive)
GI50 [51]: > 100 µM (inactive)
GI50 [52]: > 100 µM (inactive)
GI50 [53]: > 100 µM (inactive)
GI50 [54]: > 100 µM (inactive)
GI50 [55]: > 100 µM (inactive)
GI50 [56]: > 100 µM (inactive)
GI50 [57]: > 100 µM (inactive)

COc1cc2oc(-c3ccc(O)cc3)cc(=O)c2c(OC)c1OC
GI50 [1]: > 100 µM (inactive)
GI50 [2]: > 100 µM (inactive)
GI50 [3]: > 100 µM (inactive)
GI50 [4]: > 100 µM (inactive)
GI50 [5]: > 100 µM (inactive)
GI50 [6]: > 100 µM (inactive)
GI50 [7]: > 100 µM (inactive)
GI50 [8]: > 100 µM (inactive)
GI50 [9]: > 100 µM (inactive)
GI50 [10]: > 100 µM (inactive)
GI50 [11]: > 100 µM (inactive)
GI50 [12]: > 100 µM (inactive)
GI50 [13]: 18.4 µM (inactive)
GI50 [14]: > 100 µM (inactive)
GI50 [58]: > 100 µM (inactive)
GI50 [15]: > 100 µM (inactive)
GI50 [16]: > 100 µM (inactive)
GI50 [17]: > 100 µM (inactive)
GI50 [18]: > 100 µM (inactive)
GI50 [19]: > 100 µM (inactive)
GI50 [20]: > 100 µM (inactive)
GI50 [21]: > 100 µM (inactive)
GI50 [22]: > 100 µM (inactive)
GI50 [23]: > 100 µM (inactive)
GI50 [24]: > 100 µM (inactive)
GI50 [25]: > 100 µM
GI50 [26]: > 100 µM (inactive)
GI50 [27]: > 100 µM (inactive)
GI50 [28]: > 100 µM (inactive)
GI50 [29]: > 100 µM (inactive)
GI50 [30]: > 100 µM (inactive)
GI50 [31]: > 100 µM (inactive)
GI50 [32]: > 100 µM (inactive)
GI50 [33]: > 100 µM (inactive)
GI50 [34]: > 100 µM (inactive)
GI50 [35]: > 100 µM (inactive)
GI50 [37]: > 100 µM (inactive)
GI50 [39]: > 100 µM (inactive)
GI50 [59]: > 100 µM (inactive)
GI50 [40]: > 100 µM (inactive)
GI50 [41]: > 100 µM (inactive)
GI50 [42]: > 100 µM (inactive)
GI50 [43]: > 100 µM (inactive)
GI50 [44]: > 100 µM (inactive)
GI50 [45]: > 100 µM (inactive)
GI50 [46]: > 100 µM (inactive)
GI50 [47]: > 100 µM (inactive)
GI50 [48]: > 100 µM (inactive)
GI50 [49]: > 100 µM (inactive)
GI50 [50]: > 100 µM (inactive)
GI50 [51]: > 100 µM (inactive)
GI50 [52]: > 100 µM (inactive)
GI50 [53]: > 100 µM (inactive)
GI50 [54]: > 100 µM (inactive)
GI50 [55]: 63.5 µM (inactive)
GI50 [56]: > 100 µM (inactive)
GI50 [57]: > 100 µM (inactive)
